For 25 compounds, IC50 results are on record in US20230079819A1, “COMPOUNDS AND USES THEREOF” (Foghorn Therapeutics Inc., priority 2019, published 2023).

Where “and” joins values, the source holds several entries; their conditions need not be identical. Equal entries are not always repeated. Bounds are passed on as bounds.

Test [1] addresses T1, BRM (Homo sapiens, UniProt P51531).
T1 construct: made in house; host or cells: High Five insect cells
The test is described as follows: ATPase catalytic activity of BRM, ADP-Glo in vitro biochemical assay. The following applies: ATPase catalytic activity, 30 nM BRM, 400 μM ATP, read-out: BRM IP50 (μM)*.

The target in test [2] is T2, BRG-1 (Homo sapiens, UniProt P51532).
T2 construct: made in house; host or cells: High Five insect cells
The test is described as follows: ATPase catalytic activity of BRG-1, ADP-Glo in vitro biochemical assay. The note with it: ATPase catalytic activity, 30 nM BRG-1, 400 μM ATP, read-out: BRG1 IP50 (μM)*. (In general: ADP-Glo turns the ADP formed in a reaction into a luminescent signal.)

T2 sequence (P51532 whole entry): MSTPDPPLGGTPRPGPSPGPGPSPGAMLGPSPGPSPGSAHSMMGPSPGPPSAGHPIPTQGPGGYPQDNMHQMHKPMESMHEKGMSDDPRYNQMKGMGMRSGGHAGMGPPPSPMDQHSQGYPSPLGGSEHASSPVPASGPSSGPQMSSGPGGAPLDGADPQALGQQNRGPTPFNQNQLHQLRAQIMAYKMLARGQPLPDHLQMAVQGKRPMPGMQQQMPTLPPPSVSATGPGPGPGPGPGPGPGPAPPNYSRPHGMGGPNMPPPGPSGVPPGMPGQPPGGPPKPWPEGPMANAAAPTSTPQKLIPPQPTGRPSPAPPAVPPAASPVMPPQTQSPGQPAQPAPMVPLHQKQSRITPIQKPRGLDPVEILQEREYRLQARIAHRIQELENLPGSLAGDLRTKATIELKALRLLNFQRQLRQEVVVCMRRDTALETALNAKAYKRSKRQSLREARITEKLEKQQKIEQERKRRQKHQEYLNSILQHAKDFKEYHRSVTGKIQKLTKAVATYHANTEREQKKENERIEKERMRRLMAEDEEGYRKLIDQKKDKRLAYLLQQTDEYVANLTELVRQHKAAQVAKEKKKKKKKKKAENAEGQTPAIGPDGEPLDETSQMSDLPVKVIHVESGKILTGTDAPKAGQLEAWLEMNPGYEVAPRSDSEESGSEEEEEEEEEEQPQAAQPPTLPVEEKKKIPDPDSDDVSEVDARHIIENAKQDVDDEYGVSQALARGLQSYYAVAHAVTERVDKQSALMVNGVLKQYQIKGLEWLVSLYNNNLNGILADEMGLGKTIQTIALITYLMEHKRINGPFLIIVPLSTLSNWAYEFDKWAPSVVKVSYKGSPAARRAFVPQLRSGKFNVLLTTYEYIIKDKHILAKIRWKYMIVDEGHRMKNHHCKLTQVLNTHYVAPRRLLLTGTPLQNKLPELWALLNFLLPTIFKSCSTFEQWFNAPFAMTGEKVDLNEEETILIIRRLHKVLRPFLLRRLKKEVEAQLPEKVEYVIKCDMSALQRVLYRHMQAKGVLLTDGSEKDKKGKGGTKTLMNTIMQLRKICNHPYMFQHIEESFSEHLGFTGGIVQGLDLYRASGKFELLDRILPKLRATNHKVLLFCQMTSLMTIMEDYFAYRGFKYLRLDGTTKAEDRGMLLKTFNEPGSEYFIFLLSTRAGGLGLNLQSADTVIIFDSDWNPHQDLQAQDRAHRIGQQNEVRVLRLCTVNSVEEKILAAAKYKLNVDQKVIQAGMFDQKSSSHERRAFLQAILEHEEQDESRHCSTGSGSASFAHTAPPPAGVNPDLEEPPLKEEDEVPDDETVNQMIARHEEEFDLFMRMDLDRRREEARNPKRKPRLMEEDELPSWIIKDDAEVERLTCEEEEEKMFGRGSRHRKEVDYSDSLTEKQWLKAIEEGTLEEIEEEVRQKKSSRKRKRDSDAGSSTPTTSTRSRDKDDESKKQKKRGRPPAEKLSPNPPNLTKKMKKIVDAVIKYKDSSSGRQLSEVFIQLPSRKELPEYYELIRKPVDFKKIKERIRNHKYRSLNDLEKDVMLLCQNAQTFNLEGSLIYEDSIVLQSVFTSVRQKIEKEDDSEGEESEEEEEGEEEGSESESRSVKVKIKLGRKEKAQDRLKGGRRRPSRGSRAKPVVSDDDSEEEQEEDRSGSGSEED
T1 sequence (P51531 whole entry): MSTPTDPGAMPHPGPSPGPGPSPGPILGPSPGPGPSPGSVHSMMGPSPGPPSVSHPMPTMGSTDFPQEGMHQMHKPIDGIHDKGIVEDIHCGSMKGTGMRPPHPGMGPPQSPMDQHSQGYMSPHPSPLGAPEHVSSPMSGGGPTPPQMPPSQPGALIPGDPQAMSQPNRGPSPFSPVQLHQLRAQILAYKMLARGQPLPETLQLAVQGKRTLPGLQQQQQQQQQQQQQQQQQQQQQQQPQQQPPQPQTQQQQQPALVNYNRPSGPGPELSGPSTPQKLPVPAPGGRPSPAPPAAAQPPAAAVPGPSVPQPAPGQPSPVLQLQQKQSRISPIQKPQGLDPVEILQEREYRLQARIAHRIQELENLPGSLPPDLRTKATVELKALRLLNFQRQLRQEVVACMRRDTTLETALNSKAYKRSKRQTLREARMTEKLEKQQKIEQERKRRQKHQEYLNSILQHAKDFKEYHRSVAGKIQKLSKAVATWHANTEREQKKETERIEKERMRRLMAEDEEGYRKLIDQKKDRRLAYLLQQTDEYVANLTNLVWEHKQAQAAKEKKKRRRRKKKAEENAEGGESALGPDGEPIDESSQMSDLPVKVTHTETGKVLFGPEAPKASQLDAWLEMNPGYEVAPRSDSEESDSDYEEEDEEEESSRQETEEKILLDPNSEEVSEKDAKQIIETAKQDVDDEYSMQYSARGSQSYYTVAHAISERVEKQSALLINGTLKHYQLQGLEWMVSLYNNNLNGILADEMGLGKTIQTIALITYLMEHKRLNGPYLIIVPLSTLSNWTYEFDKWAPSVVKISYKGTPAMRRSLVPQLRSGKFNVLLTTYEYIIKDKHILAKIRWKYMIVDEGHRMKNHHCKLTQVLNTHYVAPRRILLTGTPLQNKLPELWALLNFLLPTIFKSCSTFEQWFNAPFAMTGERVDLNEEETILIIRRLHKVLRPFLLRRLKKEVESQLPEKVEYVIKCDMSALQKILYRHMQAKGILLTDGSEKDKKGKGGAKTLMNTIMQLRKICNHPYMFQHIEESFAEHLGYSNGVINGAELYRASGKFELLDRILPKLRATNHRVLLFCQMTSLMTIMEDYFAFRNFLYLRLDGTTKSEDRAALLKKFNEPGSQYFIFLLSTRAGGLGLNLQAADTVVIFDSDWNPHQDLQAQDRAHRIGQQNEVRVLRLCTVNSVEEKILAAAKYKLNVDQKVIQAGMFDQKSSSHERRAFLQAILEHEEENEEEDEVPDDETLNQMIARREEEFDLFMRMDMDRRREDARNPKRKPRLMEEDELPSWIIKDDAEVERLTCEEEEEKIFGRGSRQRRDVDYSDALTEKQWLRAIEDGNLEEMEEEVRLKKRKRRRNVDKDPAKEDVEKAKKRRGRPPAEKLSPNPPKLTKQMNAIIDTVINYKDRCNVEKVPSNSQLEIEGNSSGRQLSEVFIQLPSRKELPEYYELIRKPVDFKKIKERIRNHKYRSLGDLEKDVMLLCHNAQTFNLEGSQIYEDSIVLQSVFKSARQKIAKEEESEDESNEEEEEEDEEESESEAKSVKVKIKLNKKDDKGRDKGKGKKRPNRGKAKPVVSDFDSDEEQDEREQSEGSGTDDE

Regarding `CS(=O)(=O)n1ccc(C(=O)NCC(=O)Nc2nc(-c3cccc(-c4ccncc4)c3)cs2)n1` [Compound 45, 1-(methylsulfonyl)-N-(2-oxo-2-((4-(3-(pyridin-4-yl)phenyl)thiazol-2-yl)amino)ethyl)-1H-pyrazole-3-carboxamide], the IC50 in test [1] and in test [2] was less than 0.01 µM throughout.
Turning to `CS(=O)(=O)n1cnc(C(=O)NCC(=O)Nc2nc(-c3cccc(-c4ccncc4)c3)cs2)c1` [Compound 46, 1-(methylsulfonyl)-N-(2-oxo-2-((4-(3-(pyridin-4-yl)phenyl)thiazol-2-yl)amino)ethyl)-1H-imidazole-4-carboxamide], the IC50 in test [1] and in test [2] was less than 0.01 µM each time.
In the case of `CN(C)S(=O)(=O)n1ccc(C(=O)NCC(=O)Nc2nc(-c3cccc(-c4ccncc4)c3)cs2)c1` [Compound 47, 1-(N,N-dimethylsulfamoyl)-N-(2-oxo-2-((4-(3-(pyridin-4-yl)phenyl)thiazol-2-yl)amino)ethyl)-1H-pyrrole-3-carboxamide], the IC50 in test [1] and in test [2] was more than 0.01 µM throughout.
Take `CC(=O)n1ccc(C(=O)NCC(=O)Nc2nc(-c3cccc(-c4ccncc4)c3)cs2)c1` [Compound 50, 1-acetyl-N-(2-oxo-2-((4-(3-(pyridin-4-yl)phenyl)thiazol-2-yl)amino)ethyl)-1H-pyrrole-3-carboxamide]: the IC50 in test [1] and in test [2] was more than 0.1 µM each time.
Take `CS(=O)(=O)n1ccc(C(=O)NCC(=O)Nc2nc(-c3cccc(-c4cccc(CN)c4)c3)cs2)c1` [Compound 53, N-(2-((4-(3′-(aminomethyl)-[1,1′-biphenyl]-3-yl)thiazol-2-yl)amino)-2-oxoethyl)-1-(methylsulfonyl)-1H-pyrrole-3-carboxamide]: the IC50 in test [1] and in test [2] was less than 0.01 µM in each case.
As to `CS(=O)(=O)n1ccc(C(=O)NCC(=O)Nc2nc(-c3cccc(-c4ccnc(N5CCNCC5)c4)c3)cs2)c1` [Compound 54, 1-(methylsulfonyl)-N-(2-oxo-2-((4-(3-(2-(piperazin-1-yl)pyridin-4-yl)phenyl)thiazol-2-yl)amino)ethyl)-1H-pyrrole-3-carboxamide], the IC50 in test [1] and in test [2] was less than 0.01 µM each time.
On to `Cc1cc(C)cc(-c2cccc(-c3csc(NC(=O)CNC(=O)c4ccn(S(C)(=O)=O)c4)n3)c2)c1` [Compound 55, N-(2-((4-(3′,5′-dimethyl-[1,1′-biphenyl]-3-yl)thiazol-2-yl)amino)-2-oxoethyl)-1-(methylsulfonyl)-1H-pyrrole-3-carboxamide], for which the IC50 in test [1] and in test [2] was less than 0.01 µM each time.
Regarding `Cc1cc(-c2cccc(-c3csc(NC(=O)CNC(=O)c4ccn(C(C)(C)C)c4)n3)c2)on1` [Compound 56, 1-(tert-butyl)-N-(2-((4-(3-(3-methylisoxazol-5-yl)phenyl)thiazol-2-yl)amino)-2-oxoethyl)-1H-pyrrole-3-carboxamide], the IC50 in test [1] and in test [2] was more than 0.01 µM throughout.
For `CC(=O)N(C)c1cc(-c2cccc(-c3csc(NC(=O)CNC(=O)c4ccn(S(C)(=O)=O)c4)n3)c2)ccn1` [Compound 57, N-(2-((4-(3-(2-(N-methylacetamido)pyridin-4-yl)phenyl)thiazol-2-yl)amino)-2-oxoethyl)-1-(methylsulfonyl)-1H-pyrrole-3-carboxamide], the IC50 in test [1] and in test [2] was less than 0.01 µM each time.
Turning to `Cn1ccc(-c2cccc(-c3csc(NC(=O)CNC(=O)c4ccn(C(C)(C)C)c4)n3)c2)n1` [Compound 58, 1-(tert-butyl)-N-(2-((4-(3-(1-methyl-1H-pyrazol-3-yl)phenyl)thiazol-2-yl)amino)-2-oxoethyl)-1H-pyrrole-3-carboxamide], the IC50 in test [1] and in test [2] was more than 0.01 µM throughout.
Regarding `CSCC[C@H](NC(=O)c1ccn(S(C)(=O)=O)c1)C(=O)Nc1nc(-c2cccc(-c3ccnc(C)c3)c2)cs1` [Compound 59, (S)—N-(1-((4-(3-(2-methylpyridin-4-yl)phenyl)thiazol-2-yl)amino)-4-(methylthio)-1-oxobutan-2-yl)-1-(methylsulfonyl)-1H-pyrrole-3-carboxamide], the IC50 in test [1] and in test [2] was less than 0.01 µM in each case.
Take `COC[C@H](NC(=O)c1ccn(S(C)(=O)=O)c1)C(=O)Nc1nc(-c2cccc(-c3ccnc(C)c3)c2)cs1` [Compound 60, (S)—N-(3-methoxy-1-((4-(3-(2-methylpyridin-4-yl)phenyl)thiazol-2-yl)amino)-1-oxopropan-2-yl)-1-(methylsulfonyl)-1H-pyrrole-3-carboxamide]: the IC50 in test [1] and in test [2] was less than 0.01 µM in each case.
As to `COC[C@H](NC(=O)c1ccn(S(C)(=O)=O)c1)C(=O)Nc1nc(-c2cccc(-c3cc(C)nc(C)c3)c2)cs1` [Compound 61, (S)—N-(1-((4-(3-(2,6-dimethylpyridin-4-yl)phenyl)thiazol-2-yl)amino)-3-methoxy-1-oxopropan-2-yl)-1-(methylsulfonyl)-1H-pyrrole-3-carboxamide], the IC50 in test [1] and in test [2] was less than 0.01 µM each time.
Consider `COC[C@H](NC(=O)c1ccn(C(C)(C)C)c1)C(=O)Nc1nc(-c2cccc(-c3ccn(C)n3)c2)cs1` [Compound 62, (S)-1-(tert-butyl)-N-(3-methoxy-1-((4-(3-(1-methyl-1H-pyrazol-3-yl)phenyl)thiazol-2-yl)amino)-1-oxopropan-2-yl)-1H-pyrrole-3-carboxamide], for which the IC50 in test [1] and in test [2] was more than 0.01 µM each time.
As for `COC[C@H](NC(=O)c1ccn(C(C)(C)C)c1)C(=O)Nc1nc(-c2ccc3ccn(C)c(=O)c3c2)cs1` [Compound 63, (S)-1-(tert-butyl)-N-(3-methoxy-1-((4-(2-methyl-1-oxo-1,2-dihydroisoquinolin-7-yl)thiazol-2-yl)amino)-1-oxopropan-2-yl)-1H-pyrrole-3-carboxamide], the IC50 in test [1] and in test [2] was more than 0.01 µM in each case.
Regarding `COC[C@H](NC(=O)c1ccn(C(C)(C)C)c1)C(=O)Nc1nc(-c2ccc3c(c2)C(=O)N(C)CC3)cs1` [Compound 64, (S)-1-(tert-butyl)-N-(3-methoxy-1-((4-(2-methyl-1-oxo-1,2,3,4-tetrahydroisoquinolin-7-yl)thiazol-2-yl)amino)-1-oxopropan-2-yl)-1H-pyrrole-3-carboxamide], the IC50 in test [1] and in test [2] was more than 0.01 µM in each case.
Take `COC[C@H](NC(=O)c1ccn(S(C)(=O)=O)c1)C(=O)Nc1nc(-c2cccc(-c3ccncn3)c2)cs1` [Compound 65, (S)—N-(3-methoxy-1-oxo-1-((4-(3-(pyrimidin-4-yl)phenyl)thiazol-2-yl)amino)propan-2-yl)-1-(methylsulfonyl)-1H-pyrrole-3-carboxamide]: the IC50 in test [1] and in test [2] was less than 0.01 µM in each case.
For the compound `COC[C@H](NC(=O)c1ccn(C(C)(C)C)c1)C(=O)Nc1nc(-c2cccc(-c3ccncn3)c2)cs1` [Compound 66, (S)-1-(tert-butyl)-N-(3-methoxy-1-oxo-1-((4-(3-(pyrimidin-4-yl)phenyl)thiazol-2-yl)amino)propan-2-yl)-1H-pyrrole-3-carboxamide], the IC50 in test [1] and in test [2] was more than 0.01 µM throughout.
As to `C[C@H](NC(=O)c1ccn(S(C)(=O)=O)c1)C(=O)Nc1nc(-c2cccc(-c3ccncc3)c2)cs1` [Compound 68, N-[(1S)-1-methyl-2-oxo-2-[[4-[3-(4-pyridyl)phenyl]thiazol-2-yl]amino]ethyl]-1-methylsulfonyl-pyrrole-3-carboxamide], the IC50 in test [1] and in test [2] was less than 0.01 µM throughout.
Take `CS(=O)(=O)n1ccc(C(=O)N[C@@H](CO)C(=O)Nc2nc(-c3cccc(-c4ccncc4)c3)cs2)c1` [Compound 69, (S)—N-(3-hydroxy-1-oxo-1-((4-(3-(pyridin-4-yl)phenyl)thiazol-2-yl)amino)propan-2-yl)-1-(methylsulfonyl)-1H-pyrrole-3-carboxamide]: the IC50 in test [1] and in test [2] was less than 0.01 µM each time.
As to `CS(=O)(=O)n1ccc(C(=O)N[C@@H](CCO)C(=O)Nc2nc(-c3cccc(-c4ccncc4)c3)cs2)c1` [Compound 71, (S)—N-(4-hydroxy-1-oxo-1-((4-(3-(pyridin-4-yl)phenyl)thiazol-2-yl)amino)butan-2-yl)-1-(methylsulfonyl)-1H-pyrrole-3-carboxamide], the IC50 in test [1] was < 0.01 µM and > 0.01 µM; in test [2], less than 0.01 µM.
For `COCC[C@H](NC(=O)c1ccn(S(C)(=O)=O)c1)C(=O)Nc1nc(-c2cccc(-c3ccncc3)c2)cs1` [Compound 72, (S)—N-(4-methoxy-1-oxo-1-((4-(3-(pyridin-4-yl)phenyl)thiazol-2-yl)amino)butan-2-yl)-1-(methylsulfonyl)-1H-pyrrole-3-carboxamide], the IC50 in test [1] and in test [2] was less than 0.01 µM each time.
In the case of `CC(C)[C@H](NC(=O)c1ccn(S(C)(=O)=O)c1)C(=O)Nc1nc(-c2cccc(-c3ccncc3)c2)cs1` [Compound 73, (S)—N-(3-methyl-1-oxo-1-((4-(3-(pyridin-4-yl)phenyl)thiazol-2-yl)amino)butan-2-yl)-1-(methylsulfonyl)-1H-pyrrole-3-carboxamide], the IC50 in test [1] and in test [2] was more than 0.01 µM each time.
For the compound `CC(C)(C)[C@H](NC(=O)c1ccn(S(C)(=O)=O)c1)C(=O)Nc1nc(-c2cccc(-c3ccncc3)c2)cs1` [Compound 74, (S)—N-(3,3-dimethyl-1-oxo-1-((4-(3-(pyridin-4-yl)phenyl)thiazol-2-yl)amino)butan-2-yl)-1-(methylsulfonyl)-1H-pyrrole-3-carboxamide], the IC50 in test [1] and in test [2] was more than 1 µM each time.
Take `CC(C)C[C@H](NC(=O)c1ccn(S(C)(=O)=O)c1)C(=O)Nc1nc(-c2cccc(-c3ccncc3)c2)cs1` [Compound 75, (S)—N-(4-methyl-1-oxo-1-((4-(3-(pyridin-4-yl)phenyl)thiazol-2-yl)amino)pentan-2-yl)-1-(methylsulfonyl)-1H-pyrrole-3-carboxamide]: the IC50 in test [1] and in test [2] was more than 0.01 µM throughout.
